19 compounds from patent US20260216164A1, “INDOLE COMPOUND DECOMPOSING IKZF2, AND USE THEREOF” (KOREA RESEARCH INSTITUTE OF CHEMICAL TECHNOLOGY, priority 2023, published 2026) can be followed below.

Assay [1] has as its target IKZF2 (Helios) (Homo sapiens, UniProt Q96SW2+Q9UKS7). The assay is described as follows: Screening of DC50 (nM) and Dmax (%) using WB-IKZF2 cell line (Western blot). Format: cell-based. The settings on record: 6 hours; for DC50: class symbols, read-out: WB-IKZF2 DC 50. Also on record: endogenous in cells. As to the method: Experimental Example 2. Screening of DC50 (nM) and Dmax (%) Using WB-IKZF2 Cell Line
Candidate degraders were serially diluted and treated in cells cultured in complete medium, followed by incubation for 6 hours at 37° C. in a CO2 incubator. After 6 hours, the cells were harvested and lysed in RIPA buffer (150 mM NaCl, 1% Triton X-100, 1% sodium deoxycholate, 0.1% SDS, 50 mM Tris-HCl pH 7.5, and 2 mM EDTA) containing a protease inhibitor cocktail (Roche). The mixture was vortexed every 10 minutes and incubated on ice for 30 minutes, followed by centrifugation at 13,000 rpm for 10 minutes at 4° C. to isolate proteins. The isolated proteins were quantified using the Bradford assay (Bio-Rad, 5000006). Proteins were separated on 8% SDS-polyacrylamide gel, transferred onto nitrocellulose membranes (Amersham, 10600002), and incubated with primary antibodies at 4° C. for 18 hours. The following primary antibodies were used: anti-Helios rabbit monoclonal antibody (Cell Signaling, 42427, 1:3000) and anti-β-actin mouse monoclonal antibody (Santa Cruz, sc-47778, 1:5000). β-actin was used as a loading control. The next day, the membranes were washed with 1×TBST for 30 minutes and incubated with HRP-conjugated secondary antibodies corresponding to the primary antibodies at room temperature for 1 hour. The following secondary antibodies were used: anti-mouse IgG HRP-linked antibody (Sigma, A9044, 1:5000) and anti-rabbit IgG HRP-linked antibody (Cell Signaling, 7074, 1:5000). After washing with 1×TBST for 30 minutes, protein expression was visualized using the Pierce ECL Western blotting substrate (Thermo Fisher, 32106), and images were captured using a chemiluminescence image analysis system (GE Healthcare, AI680). The obtained images were quantified using the ImageJ software.
In general terms: A western blot detects proteins with antibodies after separation by electrophoresis.

For assay [2], the target named is Helios (IKZF2) (Homo sapiens, UniProt Q96SW2+Q9UKS7). As to the kind of experiment: Screening of Helios protein degraders using Nano-Glo HiBiT cell line (HiBiT-IKZF2). The class given is cell-based. To be noted: for remaining activity at 1 µM: compound 1 μM, read-out: HiBiT-IKZF2 Residual amount of Helios (%) 1 μM; for remaining activity at 1 µM / remaining activity at 10 µM: 6 hours, HiBiT-Helios knock-in Jurkat cells; for remaining activity at 10 µM: compound 10 μM, read-out: HiBiT-IKZF2 Residual amount of Helios (%) 10 μM. (The HiBiT peptide binds its large partner to form an active luciferase.)
Helios (IKZF2), sequence (Q9UKS7 whole entry): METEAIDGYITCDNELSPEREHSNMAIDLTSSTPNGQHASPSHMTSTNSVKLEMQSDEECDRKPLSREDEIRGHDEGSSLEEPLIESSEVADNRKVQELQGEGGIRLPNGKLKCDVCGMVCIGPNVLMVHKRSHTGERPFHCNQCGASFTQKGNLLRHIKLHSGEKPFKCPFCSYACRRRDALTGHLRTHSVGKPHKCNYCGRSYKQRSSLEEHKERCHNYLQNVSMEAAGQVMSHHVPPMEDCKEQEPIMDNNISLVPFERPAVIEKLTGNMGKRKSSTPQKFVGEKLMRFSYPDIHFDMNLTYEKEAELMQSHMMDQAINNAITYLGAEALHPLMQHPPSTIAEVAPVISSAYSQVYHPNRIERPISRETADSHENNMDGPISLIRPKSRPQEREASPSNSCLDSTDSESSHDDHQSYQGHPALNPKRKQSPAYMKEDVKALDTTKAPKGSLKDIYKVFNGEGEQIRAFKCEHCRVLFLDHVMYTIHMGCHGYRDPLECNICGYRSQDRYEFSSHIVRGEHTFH
Helios (IKZF2), sequence (Q96SW2 whole entry): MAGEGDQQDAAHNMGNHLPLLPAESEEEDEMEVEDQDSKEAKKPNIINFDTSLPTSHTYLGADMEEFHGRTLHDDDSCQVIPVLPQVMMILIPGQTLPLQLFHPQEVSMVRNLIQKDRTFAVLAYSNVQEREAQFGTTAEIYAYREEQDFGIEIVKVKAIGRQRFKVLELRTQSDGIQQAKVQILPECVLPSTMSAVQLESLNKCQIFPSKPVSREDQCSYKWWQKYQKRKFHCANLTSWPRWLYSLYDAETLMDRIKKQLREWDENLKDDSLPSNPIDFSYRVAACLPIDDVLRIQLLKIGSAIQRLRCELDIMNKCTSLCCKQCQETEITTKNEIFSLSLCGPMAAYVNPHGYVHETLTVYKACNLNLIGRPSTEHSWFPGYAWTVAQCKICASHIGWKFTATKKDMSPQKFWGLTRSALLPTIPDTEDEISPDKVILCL
Helios (IKZF2), sequence (Q16531 whole entry partner): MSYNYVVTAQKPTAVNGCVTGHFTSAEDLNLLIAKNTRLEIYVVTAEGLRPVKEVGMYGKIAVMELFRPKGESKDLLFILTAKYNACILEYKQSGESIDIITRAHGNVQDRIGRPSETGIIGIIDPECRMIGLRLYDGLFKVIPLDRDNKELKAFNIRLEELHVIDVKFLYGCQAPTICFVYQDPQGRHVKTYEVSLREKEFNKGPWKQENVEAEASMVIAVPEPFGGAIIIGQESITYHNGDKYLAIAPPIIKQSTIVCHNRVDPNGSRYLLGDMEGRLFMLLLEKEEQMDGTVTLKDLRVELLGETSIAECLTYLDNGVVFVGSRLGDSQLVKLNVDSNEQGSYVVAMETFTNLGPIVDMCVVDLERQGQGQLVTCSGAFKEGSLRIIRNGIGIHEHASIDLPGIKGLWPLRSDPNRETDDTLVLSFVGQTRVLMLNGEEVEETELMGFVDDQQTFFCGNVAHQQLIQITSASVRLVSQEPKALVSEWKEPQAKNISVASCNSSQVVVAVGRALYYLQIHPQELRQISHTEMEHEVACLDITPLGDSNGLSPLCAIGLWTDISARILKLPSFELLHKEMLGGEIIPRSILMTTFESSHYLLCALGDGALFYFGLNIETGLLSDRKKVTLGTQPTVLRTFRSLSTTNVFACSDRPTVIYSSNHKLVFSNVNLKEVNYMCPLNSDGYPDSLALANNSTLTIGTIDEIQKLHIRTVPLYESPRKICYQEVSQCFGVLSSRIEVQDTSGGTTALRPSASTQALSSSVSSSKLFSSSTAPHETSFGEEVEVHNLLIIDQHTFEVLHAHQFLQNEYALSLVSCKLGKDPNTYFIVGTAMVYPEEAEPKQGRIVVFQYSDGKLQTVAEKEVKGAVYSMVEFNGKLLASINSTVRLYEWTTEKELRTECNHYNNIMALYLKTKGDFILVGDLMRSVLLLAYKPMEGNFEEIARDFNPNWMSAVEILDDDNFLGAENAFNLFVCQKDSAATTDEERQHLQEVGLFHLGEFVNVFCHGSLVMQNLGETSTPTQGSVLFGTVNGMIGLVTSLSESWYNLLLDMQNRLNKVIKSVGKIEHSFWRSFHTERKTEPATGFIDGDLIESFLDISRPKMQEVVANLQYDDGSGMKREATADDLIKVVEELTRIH

IKZF2 (Helios), sequence (Q9UKS7 whole entry): as the sequence (Q9UKS7 whole entry) above
IKZF2 (Helios), sequence (Q96SW2 whole entry): as the sequence (Q96SW2 whole entry) above
IKZF2 (Helios), sequence (Q16531 whole entry partner): as the sequence (Q16531 whole entry partner) above

As to `Cc1c(C(=O)N2CCC(c3ccc4c(c3F)CN(C3CCC(=O)NC3=O)C4=O)CC2)[nH]c2cc(Cl)c(O)cc12` (centres unmarked) [Compound 115, 3-(5-(1-(6-chloro-5-hydroxy-3-methyl-1H-indole-2-carbonyl)piperidin-4-yl)-4-fluoro-1-oxoinsoindolin-2-yl)piperidine-2,6-dione], in assay [1], the Dmax was found to be 100% and the DC50 was < 10 nM. Besides, the remaining activity at 1 µM in assay [2] amounted to 34.6%.

`Cc1c(C(=O)N2CCC(c3ccc4c(c3)CN(C3CCC(=O)NC3=O)C4=O)CC2)[nH]c2cc([N+](=O)[O-])c(Cl)cc12` (centres unmarked) [Compound 84, 3-(5-(1-(5-chloro-3-methyl-6-nitro-1H-indole-2-carbonyl)piperidin-4-yl)-1-oxoinsoindolin-2-yl)piperidine-2,6-dione]: the DC50 in assay [1] was 100 to 1000 nM. Moreover, the remaining activity at 10 µM in assay [2] is 9.7%.

Take `COc1cc2c(C)c(C(=O)N3CCC(c4ccc5c(c4)CN(C4CCC(=O)NC4=O)C5=O)CC3)[nH]c2cc1Cl` (centres unmarked) [Compound 71, 3-(5-(1-(6-chloro-5-methoxy-3-methyl-1H-indole-2-carbonyl)piperidin-4-yl)-1-oxoinsoindolin-2-yl)piperidine-2,6-dione]: in assay [1], the Dmax came to 100% and the DC50 is < 10 nM. For the same compound, in assay [2], the remaining activity at 1 µM stood at 14.2% and the remaining activity at 10 µM turned out to be 25.3%.

Take `COc1cc2c(C)c(C(=O)N3CCC(c4ccc5c(c4)CN(C4CCC(=O)NC4=O)C5=O)CC3)[nH]c2cc1[N+](=O)[O-]` (centres unmarked) [Compound 97, 3-(5-(1-(5-methoxy-3-methyl-6-nitro-1H-indole-2-carbonyl)piperidin-4-yl)-1-oxoinsoindolin-2-yl)piperidine-2,6-dione]: the DC50 in assay [1] lay in the range of 10 to 100 nM. Further, in assay [2], the remaining activity at 1 µM was 14.6% and the remaining activity at 10 µM was 21.4%.

`Cc1c(C(=O)N2CCC(c3cc4c(cc3F)C(=O)N(C3CCC(=O)NC3=O)C4)CC2)[nH]c2cc(Cl)c(F)cc12` (centres unmarked) [Compound 112, 3-(5-(1-(6-chloro-5-fluoro-3-methyl-1H-indole-2-carbonyl)piperidin-4-yl)-6-fluoro-1-oxoinsoindolin-2-yl)piperidine-2,6-dione]: in assay [1], the Dmax was determined as 98% and the DC50 lay within 10 to 100 nM. Moreover, the remaining activity at 1 µM in assay [2] is 23%.

Take `COc1cc2c(C)c(C(=O)N3CCC(c4ccc5c(c4F)CN(C4CCC(=O)NC4=O)C5=O)CC3)[nH]c2cc1Cl` (centres unmarked) [Compound 108, 3-(5-(1-(6-chloro-5-methoxy-3-methyl-1H-indole-2-carbonyl)piperidin-4-yl)-4-fluoro-1-oxoinsoindolin-2-yl)piperidine-2,6-dione]: in assay [1], the Dmax came out at 100% and the DC50 is < 10 nM. For the same compound, in assay [2], the remaining activity at 1 µM turned out to be 8.3% and the remaining activity at 10 µM was found to be 7.5%.

On to `Cc1c(C(=O)N2CCC(c3ccc4c(c3)CN(C3CCC(=O)NC3=O)C4=O)CC2)[nH]c2cc(OC(F)(F)F)ccc12` (centres unmarked) [Compound 53, 3-(5-(1-(3-methyl-6-(trifluoromethoxy)-1H-indole-2-carbonyl)piperidin-4-yl)-1-oxoinsoindolin-2-yl)piperidine-2,6-dione], for which, in assay [1], the DC50 lay within 100 to 1000 nM. Also, the remaining activity at 10 µM in assay [2] is 7.7%.

Turning to `Cc1cc2c(C)c(C(=O)N3CCC(c4ccc5c(c4)CN(C4CCC(=O)NC4=O)C5=O)CC3)[nH]c2cc1[N+](=O)[O-]` (centres unmarked) [Compound 85, 3-(5-(1-(3,5-dimethyl-6-nitro-1H-indole-2-carbonyl)piperidin-4-yl)-1-oxoinsoindolin-2-yl)piperidine-2,6-dione], the DC50 in assay [1] lay within 100 to 1000 nM. Further, the remaining activity at 10 µM in assay [2] came out at 11%.

As for `Cc1c(C(=O)N2CCC(c3ccc4c(c3)CN(C3CCC(=O)NC3=O)C4=O)CC2)[nH]c2cc(Cl)c(O)cc12` (centres unmarked) [Compound 101, 3-(5-(1-(6-chloro-5-hydroxy-3-methyl-1H-indole-2-carbonyl)piperidin-4-yl)-1-oxoinsoindolin-2-yl)piperidine-2,6-dione], in assay [1], the Dmax came to 100% and the DC50 lay within 10 to 100 nM. In assay [2], the remaining activity at 1 µM came out at 15.7% and the remaining activity at 10 µM came to 20.7%.

Take `Cc1c(C(=O)N2CCC(O)(c3ccc4c(c3)CN(C3CCC(=O)NC3=O)C4=O)CC2)[nH]c2cc(Cl)ccc12` (centres unmarked) [Compound 64, 3-(5-(1-(6-chloro-3-methyl-1H-indole-2-carbonyl)-4-hydroxypiperidin-4-yl)-1-oxoinsoindolin-2-yl)piperidine-2,6-dione]: the DC50 in assay [1] lay in the range of 10 to 100 nM. Also, the remaining activity at 10 µM in assay [2] was determined as 8.1%.

For the compound `Cc1c(C(=O)N2CCC(c3cc4c(cc3F)C(=O)N(C3CCC(=O)NC3=O)C4)CC2)[nH]c2cc(Cl)ccc12` (centres unmarked) [Compound 90, 3-(5-(1-(6-chloro-3-methyl-1H-indole-2-carbonyl)piperidin-4-yl)-6-fluoro-1-oxoinsoindolin-2-yl)piperidine-2,6-dione], in assay [1], the Dmax was determined as 100% and the DC50 is < 10 nM. Besides, in assay [2], the remaining activity at 10 µM is 6.2%.

Take `CCNC(=O)Nc1ccc2c(C)c(C(=O)N3CCC(c4ccc5c(c4)CN(C4CCC(=O)NC4=O)C5=O)CC3)[nH]c2c1` (centres unmarked) [Compound 75, 1-(2-(4-(2-(2,6-dioxopiperidin-3-yl)-1-oxoindolin-5-yl)piperidine-1-carbonyl)-3-methyl-1H-indol-6-yl)-3-ethylurea]: the DC50 in assay [1] lay within 100 to 1000 nM. For the same compound, in assay [2], the remaining activity at 1 µM was found to be 29.6% and the remaining activity at 10 µM is 19%.

As for `Cc1c(C(=O)N2CCC(c3ccc4c(c3F)CN(C3CCC(=O)NC3=O)C4=O)CC2)[nH]c2cc([N+](=O)[O-])ccc12` (centres unmarked) [Compound 94, 3-(4-fluoro-5-(1-(3-methyl-6-nitro-1H-indole-2-carbonyl)piperidin-4-yl)-1-oxoinsoindolin-2-yl)piperidine-2,6-dione], in assay [1], the Dmax is 100% and the DC50 is < 10 nM. In addition, the remaining activity at 10 µM in assay [2] is 8.5%.

As for `Cc1c(C(=O)N2C3CCC2CC(c2ccc4c(c2)CN(C2CCC(=O)NC2=O)C4=O)C3)[nH]c2cc(Cl)ccc12` (centres unmarked) [Compound 58, 3-(5-(8-(6-chloro-3-methyl-1H-indole-2-carbonyl)-8-azabicyclo[3.2.1]octan-3-yl)-1-oxoinsoindolin-2-yl)piperidine-2,6-dione], the DC50 in assay [1] lay within 10 to 100 nM. Besides, in assay [2] (as shown in Table 1), the “IKZF2 degradation activity (in words, comment on Table 1)” value is “excellent IKZF2 degradation activity”. Also, the remaining activity at 10 µM in assay [2] was 5.2%.

As to `Cc1c(C(=O)N2CCC(c3ccc4c(c3)CN(C3CCC(=O)NC3=O)C4=O)CC2)[nH]c2cc(O)ccc12` (centres unmarked) [Compound 47, 3-(5-(1-(6-hydroxy-3-methyl-1H-indole-2-carbonyl)piperidin-4-yl)-1-oxoinsoindolin-2-yl)piperidine-2,6-dione], in assay [1], the DC50 was in the range of 100 to 1000 nM. For the same compound, in assay [2], the remaining activity at 1 µM came to 27.9% and the remaining activity at 10 µM was 24%.

In the case of `Cc1c(C(=O)N2CCC(c3ccc4c(c3)CN(C3CCC(=O)NC3=O)C4=O)CC2)[nH]c2cc(Br)ccc12` (centres unmarked) [Compound 49, 3-(5-(1-(6-bromo-3-methyl-1H-indole-2-carbonyl)piperidin-4-yl)-1-oxoinsoindolin-2-yl)piperidine-2,6-dione], the DC50 in assay [1] fell in the range of 100 to 1000 nM. In assay [2], the remaining activity at 10 µM stood at 8.67%.

With `Cc1c(C(=O)N2CCC(c3ccc4c(c3)CN(C3CCC(=O)NC3=O)C4=O)CC2)[nH]c2cc([N+](=O)[O-])ccc12` (centres unmarked) [Compound 55, 3-(5-(1-(3-methyl-6-nitro-1H-indole-2-carbonyl)piperidin-4-yl)-1-oxoinsoindolin-2-yl)piperidine-2,6-dione], in assay [1], the Dmax turned out to be 100% and the DC50 was < 10 nM. The remaining activity at 10 µM in assay [2] stood at 5.1%.

As to `Cc1c(C(=O)N2CCC(c3ccc4c(c3)CN(C3CCC(=O)NC3=O)C4=O)CC2)[nH]c2cc(Cl)c(F)cc12` (centres unmarked) [Compound 102, 3-(5-(1-(6-chloro-5-fluoro-3-methyl-1H-indole-2-carbonyl)piperidin-4-yl)-1-oxoinsoindolin-2-yl)piperidine-2,6-dione], in assay [1], the Dmax turned out to be 100% and the DC50 is < 10 nM. In assay [2], the remaining activity at 1 µM is 21.8% and the remaining activity at 10 µM turned out to be 26.2%.

With `Cc1c(C(=O)N2CCC(c3cc4c(cc3F)C(=O)N(C3CCC(=O)NC3=O)C4)CC2)[nH]c2cc([N+](=O)[O-])ccc12` (centres unmarked) [Compound 93, 3-(6-fluoro-5-(1-(3-methyl-6-nitro-1H-indole-2-carbonyl)piperidin-4-yl)-1-oxoinsoindolin-2-yl)piperidine-2,6-dione], in assay [1], the Dmax came out at 100% and the DC50 is < 10 nM. Further, the remaining activity at 10 µM in assay [2] stood at 26.5%.
